Columns and labels:
[1] = biological target: GTPγS-bound human HRasG12V / human c-Raf-1 Ras binding domain (RBD) (Homo sapiens (Human), UniProt P01112, G12V); test: Ras-Raf binding inhibition ELISA; details: for IC50: anti-HRas antibody C-20, read-out: ELISA IC50 (μM): 1st Ab_C-20
Outline: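 GST-c-Raf-1 RBD (aa 50-131) immobilized on glutathione plates, then GTPγS-loaded full-length HRasG12V added with compound (final 10% DMSO), 1 h at 30 °C, pH 7.4 Tris buffer. Bound Ras detected by anti-HRas antibody (C-20 or 259) and HRP secondary, TMB read at OD450; IC50 from inhibition.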

[2] = test system: small cell lung cancer cells SHP77 (K-RasG12V); test: Cell growth inhibition, suspension cells SHP77; format: cell-based; details: Homo sapiens, 72 hours; for inhibition at 3.2 µM: read-out: SHP77 (KRasG12V) % inhibition at 3.2 μM (**)
Description: (§1) The cell growth inhibitory activity of the compound of the present invention on human culture cells having active-type mutation in Ras was evaluated by the below-mentioned method using suspension cancer cells {acute lymphoblastic leukemia cells CCRF-CEM (K-RasG12D), promyelocytic leukemia cells HL60 (N-RasQ61L), acute lymphoblastic leukemia cells MOLT4 (N-RasG12C), and small cell lung cancer cells SHP77 (K-RasG12V)} and adherent cancer cells {large bowel cancer cells SW480 (K-RasG12V) and large bowel cancer cell SW620 (K-RasG12V)}.
(§2) (Case of suspension cells) The cells suspended in a medium containing 0.5% (v/v) fetal bovine serum (FBS) and each compound solution (final DMSO concentration: 1%) were seeded on a 96-well plate (2 to 4×10^4 cells/well), and the resulting mixture was then cultured at 37° C. in the presence of 5% CO2 for 72 hours.
(§3) Thereafter, the number of viable cells was measured using Cell Counting Reagent (Nacalai Tesque) in accordance with the manufacturer's instructions. Inhibition by the test compound was determined according to the following equation: […]

[3] = test system: large bowel cancer cell SW620 (K-RasG12V); test: Cell growth inhibition, adherent cells SW620; format: cell-based; details: Homo sapiens, SW-620, 72 hours; for inhibition at 3.2 µM: read-out: SW620 (KRasG12V) % inhibition at 3.2 μM (***)
Description: as §1
(Case of adherent cells) The cells suspended in a medium containing 10% FBS (1 to 2×10^4 cells/well) were seeded on a 96-well plate, and were then cultured at 37° C. in the presence of […]. Thereafter, the medium was exchanged with a medium containing […], to which each compound solution (final DMSO concentration: […]) had been added, and the cells were then cultured at 37° C. in the presence of […] for 72 hours.
as §3

[4] = test system: acute lymphoblastic leukemia cells MOLT4 (N-RasG12C); test: Cell growth inhibition, suspension cells MOLT4; format: cell-based; details: Homo sapiens, MOLT-4, 72 hours
Description: as §1, §2, §3

[5] = test system: acute lymphoblastic leukemia cells CCRF-CEM (K-RasG12D); test: Cell growth inhibition, suspension cells CCRF-CEM; format: cell-based; details: Homo sapiens, 1 μM, 72 hours, read-out: CCRF-CEM (KRasG12D) % inhibition at 1 μM
Description: as §1, §2, §3

GTPγS-bound human HRasG12V / human c-Raf-1 Ras binding domain (RBD), sequence (P01112 whole entry G12V, the tested form may be a part): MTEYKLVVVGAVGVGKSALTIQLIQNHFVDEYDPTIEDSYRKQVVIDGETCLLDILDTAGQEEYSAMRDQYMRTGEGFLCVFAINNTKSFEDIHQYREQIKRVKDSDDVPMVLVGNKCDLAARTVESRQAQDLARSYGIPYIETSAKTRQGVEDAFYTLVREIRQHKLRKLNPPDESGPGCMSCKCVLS

Row | SMILES | inhibition at 1 µM [1] [%] | IC50 [1] [µM] | inhibition at 3.2 µM [2] [%] | inhibition at 3.2 µM [3] [%] | further results
1 | CC(=O)N1CCc2c(cccc2-c2cc(/C=C3/C(=O)c4ccccc4N3C(C)=O)nc3ccccc23)C1 [Example 193, (Z)-1-acetyl-2-((4-(2-acetyl-1,2,3,4-tetra-hydroisoquinolin-5-yl)quinolin-2-yl)methylene)-indolin-3-one] | 60.4 |  | 98.1 | 96.1 | 
2 | COc1cc(/C=C2/C(=O)c3ccccc3N2C(C)=O)ccc1OCS(C)(=O)=O [Example 24, 1-acetyl-2-(3-methoxy-4-((methylsulfon-yl)methoxy)-benzylidene)-indolin-3-one] |  |  |  |  | inhibition at 1 µM ([4]; 1 μM, read-out: MOLT-4 (NRasG12C) % inhibition at 1 μM): 54%; inhibition at 1 µM [5]: 88%
3 | CC(=O)N1CCc2cc(-c3cc(/C=C4/C(=O)c5ccccc5N4C(C)=O)nc4ccccc34)ccc2C1 [Example 187, (Z)-1-acetyl-2-((4-(2-acetyl-1,2,3,4-tetra-hydroisoquinolin-6-yl)-quinolin-2-yl)methylene)-indolin-3-one] | 66.7 |  |  |  | inhibition at 1 µM ([2]; 1 μM, read-out: SHP77 (KRasG12V) % inhibition at 1 μM): 66.8%; inhibition at 1 µM ([3]; 1 μM, read-out: SW620 (KRasG12V) % inhibition at 1 μM): 39.3%
4 | CC(=O)N1/C(=C\c2nc3ccc(C(=O)O)cc3cc2-c2cccc3ccccc23)C(=O)c2ccccc21 [Example 202, (Z)-2-((1-acetyl-3-oxoindolin-2-ylidene)methyl)-3-(naphthalen-1-yl)-quinoline-6-carboxylic acid] |  |  | 63.6 | 96.6 | 
5 | CC(=O)N1/C(=C\c2cc(-c3cccc4ccccc34)c3cc(C(=O)O)ccc3n2)C(=O)c2ccccc21 [Example 153, (Z)-2-((1-acetyl-3-oxoindolin-2-ylidene)methyl)-4-(naphthalen-1-yl)quinoline-6-carboxylic acid] | 63.1 | 1.1 | 65.7 | 96.1 | 
6 | CC(=O)N1/C(=C\c2cc(-c3nccn3C)c3cc(C(=O)N4CCOCC4)ccc3n2)C(=O)c2ccccc21 [Example 180, (Z)-1-acetyl-2-((4-(1-methyl-1H-imidazol-2-yl)-6-(morpholine-4-carbonyl)quinolin-2-yl)methylene)-indolin-3-one] | 43.7 | 1.5 | 69.2 |  | 
7 | CCOc1cc(/C=C2/C(=O)c3ccccc3N2C(C)=O)ccc1OCC(N)=O [Example 13, 2-(4-((1-acetyl-3-oxoindolin-2-ylidene)methyl)-2-ethoxyphenoxy)-acetamide] |  |  |  |  | inhibition at 10 µM ([4]; 10 μM (**), read-out: MOLT-4 (NRasG12C) % inhibition at 10 μM (**)): 100%; inhibition at 1 µM [5]: 33%
8 | CC(=O)N1/C(=C\c2cc(-c3cccc(-c4ccccc4)c3)c3cc(C(=O)O)ccc3n2)C(=O)c2ccccc21 [Example 152, (Z)-4-([1,1′-biphenyl]-3-yl)-2-((1-acetyl-3-oxo-indolin-2-ylidene)-methyl)quinoline-6-carboxylic acid] | 53.5 | 0.9 | 81.1 | 97.2 | 
9 | CC(=O)N1/C(=C\c2cc(-c3ccc(-c4ccccc4)cc3)c3cc(CNC4CCOCC4)ccc3n2)C(=O)c2ccccc21 [Example 168, (Z)-2-((4-([1,1′-biphenyl]-4-yl)-6-(((tetrahydro-2H-pyran-4-yl)amino)-methyl)quinolin-2-yl)methylene)-1-acetylindolin-3-one] | 48.4 | 1.3 | 53.1 |  | 
10 | CC(=O)N1/C(=C\c2cc(-c3cccc(-c4ccccc4)c3)c3cc(CNC4CCOCC4)ccc3n2)C(=O)c2ccccc21 [Example 164, (Z)-2-((4-([1,1′-biphenyl]-3-yl)-6-(((tetrahydro-2H-pyran-4-yl)amino)-methyl)quinolin-2-yl)methylene)-1-acetylindolin-3-one] | 48.7 | 1.2 | 43.5 |  | 
11 | CC(=O)N1/C(=C\c2ccc3cc(C(=O)N4CCOCC4)cc(-c4cccc5ccccc45)c3n2)C(=O)c2ccccc21 [Example 197, 1-acetyl-2-((6-(morpholine-4-carbonyl)-8-(naphthalen-1-yl)-quinolin-2-yl)-methylene)indolin-3-one] |  |  | 65.7 | 35.5 | inhibition at 10 µM [1]: 35.3%

Further molecules by falling IC50 [1], results first:

Row | inhibition at 1 µM [1] [%] | IC50 [1] [µM] | SMILES | inhibition at 3.2 µM [2] [%] | inhibition at 3.2 µM [3] [%] | further results
12 | 52 | 0.9 | CC(=O)N1/C(=C\c2cc(-c3ccc(-c4ccccc4)cc3)c3cc(C(=O)O)ccc3n2)C(=O)c2ccccc21 [Example 156, (Z)-4-([1,1′-biphenyl]-4-yl)-2-((1-acetyl-3-oxoindolin-2-ylidene)methyl)-quinoline-6-carboxylic acid] | 35.1 | 99 | 
13 | 52.4 | 0.9 | CC(=O)N1/C(=C\c2cc(-c3ccc4ccccc4c3)c3cc(CNC4CCOCC4)ccc3n2)C(=O)c2ccccc21 [Example 169, (Z)-1-acetyl-2-((4-(naphthalen-2-yl)-6-(((tetrahydro-2H-pyran-4-yl)-amino)methyl)-quinolin-2-yl)-methylene)indolin-3-one] | 51.5 | 35.1 | 
14 | 55.4 | 0.9 | CC(=O)N1/C(=C\c2cc(-c3cnccn3)c3cc(C(=O)N4CCOCC4)ccc3n2)C(=O)c2ccccc21 [Example 194, (Z)-1-acetyl-2-((6-(morpholine-4-carbonyl)-4-(pyrazin-2-yl)-quinolin-2-yl)-methylene)indolin-3-one] | 58.3 |  | 
15 | 55.7 | 0.9 | CC(=O)N1/C(=C\c2ccc3c(-c4cccc5ccccc45)c(C(=O)N4CCOCC4)ccc3n2)C(=O)c2ccccc21 [Example 195, (Z)-1-acetyl-2-((6-(morpholine-4-carbonyl)-5-(naphthalen-1-yl)-quinolin-2-yl)-methylene)indolin-3-one] | 96.4 | 95.4 | 
16 | 59.2 | 0.8 | CC(=O)N1/C(=C\c2cc(-c3cccc(-c4ccccc4)c3)c3cc(C(=O)N4CCN(C5COC5)CC4)ccc3n2)C(=O)c2ccccc21 [Example 158, (Z)-2-((4-([1,1′-biphenyl]-3-yl)-6-(4-(oxetan-3-yl)-piperazine-1-carbonyl)quinolin-2-yl)methylene)-1-acetylindolin-3-one] | 72.4 | 58.5 | 
17 | 62.2 | 0.8 | CC(=O)N1/C(=C\c2cc(-c3cccc4cccnc34)c3cc(CNC4CCOCC4)ccc3n2)C(=O)c2ccccc21 [Example 167, (Z)-1-acetyl-2-((6-(((tetrahydro-2H-pyran-4-yl)-amino)methyl)-[4,8′-biquinolin]-2-yl)methylene)-indolin-3-one] | 65.8 | 64.4 | 
18 | 63.8 | 0.7 | CC(=O)N1/C(=C\c2cc(-c3ccc4ccccc4c3)c3cc(C(=O)N4CCN(C5COC5)CC4)ccc3n2)C(=O)c2ccccc21 [Example 163, (Z)-1-acetyl-2-((4-(naphthalen-2-yl)-6-(4-(oxetan-3-yl)piperazine-1-carbonyl)quinolin-2-yl)methylene)-indolin-3-one] | 72.3 | 34.7 | 
19 | 61.4 | 0.6 | CC(=O)N1/C(=C\c2cc(-c3ccc4ccccc4c3)c3cc(C(=O)O)ccc3n2)C(=O)c2ccccc21 [Example 157, (Z)-2-((1-acetyl-3-oxoindolin-2-ylidene)methyl)-4-(naphthalen-2-yl)quinoline-6-carboxylic acid] | 49.2 | 97.5 | 
20 | 72.7 | 0.3 | CC(=O)N1/C(=C\c2cc(-c3cccc4ccccc34)c3cc(C(=O)N4CCN(C5COC5)CC4)ccc3n2)C(=O)c2ccccc21 [Example 159, (Z)-1-acetyl-2-((4-(naphthalen-1-yl)-6-(4-(oxetan-3-yl)piperazine-1-carbonyl)quinolin-2-yl)methylene)-indolin-3-one] | 52.6 | 96.6 | 
